We go through three molecules from ChEMBL document CHEMBL1146684, “An electrochemical device for the assay of the interaction between a dioxin receptor and its various ligands” (Bioorg Med Chem Lett, 2004).

The series has as its target T1, Aryl hydrocarbon receptor (Homo sapiens, UniProt P35869).
T1 sequence (P35869 whole entry): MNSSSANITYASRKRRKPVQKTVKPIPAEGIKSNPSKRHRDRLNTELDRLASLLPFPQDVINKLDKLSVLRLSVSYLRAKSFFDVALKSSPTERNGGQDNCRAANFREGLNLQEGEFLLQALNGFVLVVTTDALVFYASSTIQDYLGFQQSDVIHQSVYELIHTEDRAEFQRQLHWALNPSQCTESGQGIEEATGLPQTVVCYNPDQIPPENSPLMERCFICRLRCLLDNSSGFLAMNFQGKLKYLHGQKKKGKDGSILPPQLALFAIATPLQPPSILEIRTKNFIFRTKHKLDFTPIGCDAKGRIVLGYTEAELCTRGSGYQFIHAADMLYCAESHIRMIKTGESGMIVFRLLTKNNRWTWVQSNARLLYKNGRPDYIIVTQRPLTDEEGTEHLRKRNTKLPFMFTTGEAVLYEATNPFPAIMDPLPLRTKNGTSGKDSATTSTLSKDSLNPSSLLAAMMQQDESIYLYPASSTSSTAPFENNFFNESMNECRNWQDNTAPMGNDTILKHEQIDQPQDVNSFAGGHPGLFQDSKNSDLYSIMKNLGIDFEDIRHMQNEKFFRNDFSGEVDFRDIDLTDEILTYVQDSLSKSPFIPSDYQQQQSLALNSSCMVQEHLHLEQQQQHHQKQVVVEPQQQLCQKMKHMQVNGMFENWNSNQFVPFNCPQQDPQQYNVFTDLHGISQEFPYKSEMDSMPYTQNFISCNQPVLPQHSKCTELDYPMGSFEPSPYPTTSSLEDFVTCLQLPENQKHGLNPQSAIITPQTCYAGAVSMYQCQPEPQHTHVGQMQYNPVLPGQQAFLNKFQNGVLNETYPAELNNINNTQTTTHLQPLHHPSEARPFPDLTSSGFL
Briefly: Compound tested for its binding to human Orphan receptor (AhR); Active.
In the case of `Clc1cc2c(cc1Cl)Oc1cc(Cl)c(Cl)cc1O2` [2,3,7,8-TETRACHLORODIBENZO-P-DIOXIN], the outcome was Active. For the molecule `c1ccc2c(c1)cc1ccc3cccc4ccc2c1c34` [BENZO[DEF]CHRYSENE], the result was Active. For the molecule `O=c1cc(-c2ccccc2)oc2ccc3ccccc3c12` [BETA-NAPHTHOFLAVONE], the outcome was Active.
